# According to patent publication US20070155780A1, “Stabilized composition containing 4-amino-5-chloro-n-[(1r, 3r, 5s)-8-methyl-8-azabicyclo[3.2.1]oct-3-y1]-2-[1-methylbut-2-ynyloxy]benzamide” (priority 2004, published 2007):
# Assay: Compatibility test of the active ingredient with pharmaceutical additives (storage, HPLC)
# Format: physicochemical
# Conditions: 60° C., relative humidity 75%, one week
# Method: Specifically, 4-amino-5-chloro-N-[(1R,3r,5S)-8-methyl-8-azabicyclo[3.2.1]oct-3-yl]-2-[(1S)-1-methylbut-2-ynyloxy]benzamide was admixed with various pharmaceutical additives in weight proportions in Table 2, the resulting compositions were weighed in transparent glass bottles, and were stored at 60° C., relative humidity of 75% for one week while keeping the lid open. Various fillers, disintegrators, binders, lubricants, and others were used as the pharmaceutical additives. As a control, 4-amino-5-chloro-N-[(1R,3r,5S)-8-methyl-8-azabicyclo[3.2.1]oct-3-yl]-2-[(1S)-1-methylbut-2-ynyloxy]benzamide alone was weighed in a transparent glass bottle and was stored under the above-mentioned conditions. The samples before and after storage were evaluated using high-performance liquid chromatography (HPLC). The stabilities of the samples were evaluated based on the total amount of decomposition products (%), the amount (%) of main decomposition product at a retention time (RRT) of 1.37, and the residual ratio of content (%) of the active ingredient after storage. […] Total amount of decomposition products (%)=Total sum of the amounts of individual decomposition products Residual ratio of content (%)=[(Content after storage)/(Content before storage)]×100 (HPLC condition)
# The respective samples before and after storage were mixed with an extraction medium, stirred for sixty minutes, and centrifuged at 3000 rpm for fifteen minutes. The resulting supernatants were assayed by liquid chromatography to thereby determine the amounts of decomposition products and the content of the active ingredient. • Extraction medium: 30% by volume aqueous solution of acetonitrile • Detector: Ultraviolet absorptiometer • Mobile phase A: Mixture of water/acetonitrile/(sodium perchlorate monohydrate)/(perchloric acid) (900:100:7:1, V/V/W/V) • Mobile phase B: Mixture of acetonitrile/water/(sodium perchlorate monohydrate)/(perchloric acid) (900:100:7:1, V/V/W/V) • Column: Stainless steel tube having an inner diameter of 4.6 mm and a length of 15 cm, charged with 3-μm octadecylsilylated silica gel for liquid chromatography • Column temperature: Constant temperature around 40° C.
structure (smiles),measurement,setting,value
"CC#C[C@H](C)Oc1cc(N)c(Cl)cc1C(=O)NC1CC2CCC(C1)N2C (stereo partly drawn) [the active ingredient, 4-amino-5-chloro-N-[(1R,3r,5S)-8-methyl-8-azabicyclo[3.2.1]oct-3-yl]-2-[(1S)-1-methylbut-2-ynyloxy]benzamide]","Decomposition on storage, in words",compared within additive class or with control,no decomposition product
same,Amount of main decomposition product at RRT = 1.37 (%),"active ingredient admixed with additive (additive rate 100, 50 or 15 to the active ingredient), lid open, HPLC external standard method",0.00%
same,Residual ratio of content (%),"active ingredient admixed with additive, lid open, content after/before storage x100",99.6%
same,Total amount of decomposition products (%),"active ingredient admixed with additive, lid open, sum of individual decomposition products",0.00%
